Data: paper PMC8872763 (Proceedings of the National Academy of Sciences of the …, 2022)

Target: glucose oxidase (GOX) (Aspergillus niger, UniProt P13006)
Assay: time-resolved fluorescence of protein-bound flavin
Assay type: binding
Conditions: 390-nm excitation

glucose oxidase (GOX), sequence (P13006 23-605 limits assumed): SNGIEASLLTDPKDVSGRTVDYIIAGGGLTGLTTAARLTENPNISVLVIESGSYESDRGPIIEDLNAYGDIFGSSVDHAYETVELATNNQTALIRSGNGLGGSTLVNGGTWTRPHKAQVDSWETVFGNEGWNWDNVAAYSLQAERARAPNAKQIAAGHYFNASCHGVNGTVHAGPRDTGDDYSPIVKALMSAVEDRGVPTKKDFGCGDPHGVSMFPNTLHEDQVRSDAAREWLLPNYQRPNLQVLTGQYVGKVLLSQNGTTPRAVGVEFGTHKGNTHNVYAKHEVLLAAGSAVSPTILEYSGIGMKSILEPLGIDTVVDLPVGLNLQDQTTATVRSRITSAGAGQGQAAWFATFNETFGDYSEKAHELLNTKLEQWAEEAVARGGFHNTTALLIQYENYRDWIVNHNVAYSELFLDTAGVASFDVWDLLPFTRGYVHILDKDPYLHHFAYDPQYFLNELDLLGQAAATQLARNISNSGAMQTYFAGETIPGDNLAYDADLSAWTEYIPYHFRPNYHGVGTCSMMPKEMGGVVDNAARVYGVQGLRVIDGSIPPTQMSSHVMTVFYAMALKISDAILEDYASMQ

Compound | time-resolved fluorescence of protein-bound flavin (Kerr gate)
Cc1cc2c(cc1C)N(C[C@H](O)[C@H](O)[C@H](O)COP(=O)(O)OP(=O)(O)OC[C@H]1O[C@@H](n3cnc4c(N)ncnc43)[C@H](O)[C@@H]1O)c1[nH]c(=O)[nH]c(=O)c1N2 [FADH^−] | time-resolved fluorescence of FADH^− in GOX exhibits monophasic decay
Cc1cc2nc3c(=O)[nH]c(=O)nc-3n(C[C@H](O)[C@H](O)[C@H](O)COP(=O)(O)OP(=O)(O)OC[C@H]3O[C@@H](n4cnc5c(N)ncnc54)[C@H](O)[C@@H]3O)c2cc1C [FADox] | The fluorescence decays of FADox and FADH^− in GOX measured under the same experimental conditions
